Measurements reported in PubChem BioAssay (NCI).
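How tested: cells in 96-well plates exposed to compound for 48 hours at five concentrations. GI50 marks 50% less growth. TGI: concentration producing complete growth inhibition.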

What was measured:
Assay in all cases: NCI-60 cell line screen, 48 h
MCF7 breast = test system: MCF7 breast
HS 578T breast = test system: HS 578T breast
PC-3 prostate = test system: PC-3 prostate
DLD-1 colon = test system: DLD-1 colon
T-47D breast = test system: T-47D breast
NCI-H226 lung = test system: NCI-H226 lung
HCT-116 colon = test system: HCT-116 colon
LXFL 529 NSCLC = test system: LXFL 529 NSCLC
HOP-18 NSCLC = test system: HOP-18 NSCLC
BT-549 breast = test system: BT-549 breast
KM20L2 colon = test system: KM20L2 colon
TK-10 renal = test system: TK-10 renal

| SMILES | GI50 (MCF7 breast) | TGI (MCF7 breast) | GI50 (HS 578T breast) | TGI (HS 578T breast) | GI50 (PC-3 prostate) | TGI (PC-3 prostate) | TGI (DLD-1 colon) | TGI (T-47D breast) | TGI (NCI-H226 lung) | TGI (HCT-116 colon) | TGI (LXFL 529 NSCLC) | TGI (HOP-18 NSCLC) | TGI (BT-549 breast) | TGI (KM20L2 colon) | TGI (TK-10 renal) | GI50 (BT-549 breast) | GI50 (TK-10 renal) | GI50 (DLD-1 colon) | GI50 (LXFL 529 NSCLC) | GI50 (KM20L2 colon) |
| --- | --- | --- | --- | --- | --- | --- | --- | --- | --- | --- | --- | --- | --- | --- | --- | --- | --- | --- | --- | --- |
| OCCN1CCN(c2nc(Nc3ccc(-c4nc5ccccc5[nH]4)cc3)c3cn[nH]c3n2)CC1 | 1.59 µM | 3.54 µM | 2.15 µM | 5.33 µM | 1.64 µM | 3.13 µM |  |  |  |  |  |  |  |  |  |  |  |  |  |  |
| Cc1n(-c2ccccc2)c2c([n+]1Cc1ccc([N+](=O)[O-])cc1)C(=O)c1ccccc1C2=O |  | 2.75 µM |  | 5.51 µM |  | 7.25 µM | 19.4 µM | 3.43 µM | 15.1 µM | 4.36 µM | 2.76 µM | 17.7 µM | 3.18 µM | 9.84 µM | 19.3 µM |  |  |  |  |  |
| Nc1nc(Sc2ccc([N+](=O)[O-])cn2)c2[nH]cnc2n1 |  | > 100 µM |  | 77.8 µM |  | 47.6 µM |  | > 42.3 µM | 57.3 µM | > 39.7 µM |  |  | 52.1 µM |  | > 100 µM |  |  |  |  |  |
| Cc1cc(=O)[nH]c(NN2C(Cl)C(=O)C2c2c(O)ccc3ccccc23)n1 (centres undefined) |  |  |  |  |  |  |  |  | 45.6 µM | 48.8 µM | 30.3 µM | 53.5 µM |  | 66.8 µM | > 100 µM |  |  |  |  |  |
| CCN(CC)CCOCC1CCCN2CCCCC12 (centres undefined) |  | > 100 µM |  | > 100 µM |  | > 100 µM |  | > 100 µM | > 100 µM | > 100 µM |  |  | > 100 µM |  | > 100 µM |  |  |  |  |  |
| NS(=O)(=O)c1ccc(N=Nc2nc3[nH]cnc(=S)c3[nH]2)cc1 |  | > 100 µM |  | > 87 µM |  | > 41.4 µM |  | > 25.3 µM | > 76.5 µM | 16.3 µM |  |  | > 37.9 µM |  | 19.3 µM |  |  |  |  |  |
| Cc1n(CC(C)C)c2c([n+]1CC(=O)c1ccc([N+](=O)[O-])cc1)C(=O)c1ccccc1C2=O |  | < 0.01 µM |  |  |  |  | 0.797 µM |  | 0.0523 µM |  |  | 0.202 µM |  | 0.113 µM |  |  |  |  |  |  |
| NC(N)=NCCCC(NCc1c2ccccc2[n+]([O-])c2ccccc12)C(=O)O (centres undefined) |  |  |  |  |  |  | > 100 µM |  | > 100 µM | > 100 µM | > 100 µM | > 100 µM |  | > 100 µM | > 100 µM |  |  |  |  |  |
| COc1cc(O)c2c(c1O)C(=O)c1cc(C)ncc1C2=O |  |  |  |  |  |  | > 50 µM |  | > 50 µM | > 50 µM | > 50 µM | > 50 µM |  | > 50 µM | > 50 µM |  |  |  |  |  |
| c1ccc(C2=NN[C@H](c3cn(-c4ccccc4)nc3-c3ccccc3)C2)cc1 | > 100 µM | > 100 µM | 2.63 µM | 7.45 µM | 6.22 µM | > 100 µM |  |  |  |  |  |  | > 100 µM |  | 7.74 µM | 5.9 µM | 2.82 µM |  |  |  |
| C=CCCCCn1c2ccccc2c2c(C)c3c[n+](C)ccc3c(C)c21 |  |  |  |  |  |  | 2.52 µM |  |  | 1.25 µM | 1.32 µM | 1.15 µM |  | 2.31 µM | 6.89 µM |  |  |  |  |  |
| CCCCCCCSCC1OC(n2cnc3c(N)ncnc32)C(O)C1O (centres undefined) |  |  |  |  |  |  | 28.7 µM |  | > 100 µM | 11.4 µM | 29.8 µM | 68.2 µM |  | > 100 µM | > 100 µM |  |  |  |  |  |
| CCCC(=O)[O-].CCCC(=O)[O-].N.N.N.N.[Co+3].[O-][Cl+3]([O-])([O-])[O-] |  |  |  |  |  |  | > 100 µM |  |  | > 100 µM | > 100 µM |  |  | > 100 µM | > 100 µM |  |  | > 100 µM | > 100 µM | > 100 µM |
| Oc1c2c(c3c4c1N=CC=4CCN=3)C1(C=C(Br)C(O)C(Br)=C1)CCN2 (centres undefined) |  | 2.73 µM |  |  |  |  | 3.95 µM |  | 9 µM | 1.9 µM |  | 23.5 µM |  | 3.26 µM |  |  |  |  |  |  |
